According to ChEMBL document CHEMBL4033758, “Systematic Data Mining Reveals Synergistic H3R/MCHR1 Ligands” (ACS Med Chem Lett, 2017):

Target: Histamine H3 receptor (Homo sapiens, UniProt Q9Y5N1)
Assay: Displacement of [3H]-N-alpha-methylhistamine from human H3R expressed in HEK293 cell membranes after 90 mins by liquid scintillation counting analysis

Histamine H3 receptor, sequence (Q9Y5N1 whole entry): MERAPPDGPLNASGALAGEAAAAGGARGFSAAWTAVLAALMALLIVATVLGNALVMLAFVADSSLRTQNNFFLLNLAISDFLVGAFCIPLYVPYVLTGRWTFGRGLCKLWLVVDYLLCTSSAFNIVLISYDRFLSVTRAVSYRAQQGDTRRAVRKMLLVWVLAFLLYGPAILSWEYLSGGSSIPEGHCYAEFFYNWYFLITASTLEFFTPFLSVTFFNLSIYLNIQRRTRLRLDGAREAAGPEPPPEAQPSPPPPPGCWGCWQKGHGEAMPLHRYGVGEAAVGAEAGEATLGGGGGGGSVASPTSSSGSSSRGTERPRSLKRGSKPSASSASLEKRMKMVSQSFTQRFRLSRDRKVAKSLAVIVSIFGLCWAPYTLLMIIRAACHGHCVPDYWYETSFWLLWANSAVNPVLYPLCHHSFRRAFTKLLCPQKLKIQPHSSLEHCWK

| Ki | Structure (SMILES) |
| --- | --- |
| 517 nM | O=c1cc(OCc2ccc(F)cc2)ccn1-c1ccc(OCCN2CCCC2)cc1 |
| 10.6 nM | CCN1CCN(c2cc(C)c3cc(NC(=O)/C=C/c4ccc(OC)cc4)ccc3n2)CC1 |
| 208 nM | COc1cc(-n2cnc3cc(-c4ccc(Cl)cc4)sc3c2=O)ccc1OCCN1CCCC1 |
